Columns and labels:
DAT = target: T1, DAT (Rattus norvegicus, UniProt P23977); experiment: DAT uptake inhibition, [3H]DA, rat brain; format: biochemical; conditions: number in parentheses within cell
T1 construct: from tissue; host or cells: rat brain

NET = target: T2, NET (Rattus norvegicus, UniProt Q63380); experiment: NET uptake inhibition, [3H]DA, rat brain; format: biochemical; conditions: number in parentheses within cell
T2 construct: from tissue; host or cells: rat brain

SERT = target: T3, SERT (Rattus norvegicus, UniProt P31652); experiment: SERT uptake inhibition, [3H]-5-HT, rat brain; format: biochemical; conditions: number in parentheses within cell
T3 construct: from tissue; host or cells: rat brain

rats = experiment: Forced swimming test (animal model of depression), duration of immobility; format: in vivo, rat; conditions: sub-chronic oral administration, P<0.01
Description: Compound D-525 was evaluated in Force Swim test which is a well-known animal model of depression. The test procedure consisted of a pretest and test session separated by 24 h. Drugs or vehicle were administered orally (p.o) by following the timeline as described in the standard protocol. Each rat underwent a 5-min swim session following drug administration, which was videotaped and scored later.
All drugs were prepared freshly on the test days. Compound D-525 and imipramine were dissolved in deionized water. All drugs and vehicles were administered p.o. D-525 was administered at a dose of 12.5 and 25 mg/kg. An individual, blinded to the treatment, scored the videotapes for immobility. Immobility scores were analyzed by one way ANOVA test which indicated significant difference between drug treated animals and vehicle.
FIG. 11 provides a bar chart showing the effect of sub-chronic oral administration of vehicle and D-525 on the duration of immobility in the forced swimming test in rats. […] Asterisks indicate a statistically significant difference toward control group that received saline p.o. **P<0.01. Each treatment group contained four to seven rats.

T3 sequence (P31652 whole entry): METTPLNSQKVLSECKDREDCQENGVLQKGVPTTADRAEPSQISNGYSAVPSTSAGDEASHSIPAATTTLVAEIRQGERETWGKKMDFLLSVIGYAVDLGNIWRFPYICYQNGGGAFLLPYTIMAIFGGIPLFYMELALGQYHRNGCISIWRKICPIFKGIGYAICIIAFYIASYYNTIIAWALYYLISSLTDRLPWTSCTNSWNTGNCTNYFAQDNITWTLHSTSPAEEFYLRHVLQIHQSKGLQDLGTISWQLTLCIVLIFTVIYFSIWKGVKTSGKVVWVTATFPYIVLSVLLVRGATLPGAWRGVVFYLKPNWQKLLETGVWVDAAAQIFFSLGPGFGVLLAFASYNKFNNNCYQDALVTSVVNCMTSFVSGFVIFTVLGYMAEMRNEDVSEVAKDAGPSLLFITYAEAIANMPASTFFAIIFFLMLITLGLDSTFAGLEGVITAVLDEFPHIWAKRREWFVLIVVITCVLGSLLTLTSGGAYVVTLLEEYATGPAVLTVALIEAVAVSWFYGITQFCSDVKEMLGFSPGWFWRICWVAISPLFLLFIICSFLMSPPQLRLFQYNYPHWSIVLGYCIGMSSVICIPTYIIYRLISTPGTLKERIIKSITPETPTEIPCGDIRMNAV
T1 sequence (P23977 whole entry): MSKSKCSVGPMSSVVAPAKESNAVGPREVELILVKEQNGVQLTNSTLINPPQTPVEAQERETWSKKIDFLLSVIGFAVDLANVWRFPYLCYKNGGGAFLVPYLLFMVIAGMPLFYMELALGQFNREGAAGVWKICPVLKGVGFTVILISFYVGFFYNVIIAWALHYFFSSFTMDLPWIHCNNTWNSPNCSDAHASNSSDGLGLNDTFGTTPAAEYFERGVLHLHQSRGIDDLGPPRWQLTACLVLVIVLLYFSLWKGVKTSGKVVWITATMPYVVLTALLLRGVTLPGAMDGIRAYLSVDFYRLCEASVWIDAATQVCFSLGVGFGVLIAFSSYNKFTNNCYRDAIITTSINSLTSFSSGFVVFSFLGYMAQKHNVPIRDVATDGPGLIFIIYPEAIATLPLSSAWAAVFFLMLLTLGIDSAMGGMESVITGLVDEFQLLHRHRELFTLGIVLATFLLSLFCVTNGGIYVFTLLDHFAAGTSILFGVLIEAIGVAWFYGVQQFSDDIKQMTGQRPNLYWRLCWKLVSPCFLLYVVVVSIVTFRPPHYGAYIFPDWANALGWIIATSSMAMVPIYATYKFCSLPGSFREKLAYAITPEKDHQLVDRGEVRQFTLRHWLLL
T2 sequence (Q63380 1-617): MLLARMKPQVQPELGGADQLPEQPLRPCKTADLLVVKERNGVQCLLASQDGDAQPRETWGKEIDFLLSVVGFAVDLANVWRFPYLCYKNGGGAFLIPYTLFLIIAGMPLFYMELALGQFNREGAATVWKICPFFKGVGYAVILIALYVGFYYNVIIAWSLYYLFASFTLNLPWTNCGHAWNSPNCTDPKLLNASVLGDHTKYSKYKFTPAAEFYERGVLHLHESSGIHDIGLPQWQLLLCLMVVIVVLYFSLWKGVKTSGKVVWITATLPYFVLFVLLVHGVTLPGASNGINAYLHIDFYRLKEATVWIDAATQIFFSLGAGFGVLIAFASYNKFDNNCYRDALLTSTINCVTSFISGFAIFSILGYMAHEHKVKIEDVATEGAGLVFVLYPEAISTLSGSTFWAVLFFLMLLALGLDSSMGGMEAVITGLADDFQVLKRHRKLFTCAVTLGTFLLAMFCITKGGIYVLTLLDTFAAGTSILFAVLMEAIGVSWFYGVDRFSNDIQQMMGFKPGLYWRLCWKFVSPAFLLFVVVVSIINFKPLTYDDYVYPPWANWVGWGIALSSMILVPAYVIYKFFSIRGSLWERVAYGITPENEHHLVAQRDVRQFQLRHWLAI

Ki (DAT): 25.3 ± 6.2 nM
Ki (NET): 25.8 ± 7.7 nM
Ki (SERT): 26.9 ± 2.6 nM
SMILES: Cn1c(=O)oc2cc(CN[C@@H]3CO[C@H](C(c4ccc(F)cc4)c4ccc(F)cc4)C[C@H]3O)ccc21 [6f, D-525, 6-((((3R,4R,6S)-6-(bis(4-fluorophenyl)methyl)-4-hydroxytetrahydro-2H-pyran-3-yl)amino)methyl)-3-methylbenzo[d]oxazol-2(3H)-one]
effect on duration of immobility in the forced swimming test vs vehicle (Dunnett's analysis) (rats; 12 mg/kg): statistically significant different compared to vehicle
effect on duration of immobility in the forced swimming test vs vehicle (Dunnett's analysis) (rats; 25 mg/kg): statistically significant different compared to vehicle

— patent US9458124B2, “Substituted pyran derivatives” (Wayne State University, priority 2013, dated 2016)
